Assays:
[1] = tested on: secretion of IL6 by OCI-LY3 ABC-DLBCL cells; assay: Human IL6 Mesoscale assay (OCI-LY3); type: cell-based; conditions: 24 h incubation, IL6 in supernatant
Protocol: (§1) NFKB signaling regulates the secretion of multiple cytokines, including IL6 and IL10. Secretion of the cytokines IL6 and IL10 by OCI-LY3 ABC-DLBCL cells was measured using a mesoscale assay. Inhibition of NFKB signaling by MALT1 inhibitors results in a decrease of IL6/10 secretion.
(§2) OCI-LY3 cells were propagated in RPMI-1640 (Sigma Aldrich) supplemented with 10% fetal bovine serum (HyClone), 1 mM sodium pyruvate (Invitrogen), 2 mM L-glutamine (Sigma Aldrich) and 1% PenStrep (Sigma Aldrich). Cell passage number should not exceed 30. Cells should be kept between 0.5-2.5 million cells per mL during culturing and cells should be supplemented every 2-3 days with fresh 50 μM beta-mercaptoethanol. No beta-mercaptoethanol was used during the mesoscale assay.
(§3) For the Mesoscale assay, 100,000 OCI-LY3 cells were seeded per well into black-colored 96-well plates with clear bottom (Corning #3904) and test compounds were added in 9 dilution steps (1:2) ranging from 15 μM to 58.6 nM (final DMSO concentration 0.3%). DMSO control wells were used to determine the maximum signal (High Control (HC)). Treatment with the BTK inhibitor RN486 in a dose range from 30 nM to […] (9 dilutions of 1:2) served as a positive control for NFKB pathway inhibition and was used to determine the maximum inhibition (Low Control (LC)). Compounds and cells were incubated for 24 h at 37° C. and 5% CO2 (assay volume is 150 μL). After 24 h of incubation 50 μL of the supernatant was transferred to a MSD plate (V-Plex Proinflammation Panel 1 (human) kit, Mesoscale (MSD)) and incubated for 2 h with vigorous shaking (600 rpm) at room temperature. Following incubation, plates were washed 3× with PBS+0.05% Tween-20 and 25 μL detection antibody solution (IL6 & IL10 antibodies in diluent 3 (MSD)) was added per well followed by 2 h of incubation with vigorous shaking (600 rpm) at room temperature. After 3× washes with PBS+0.05% Tween-20, plates were incubated with 150 μL 2× Read Buffer T and read on SECTOR imager.

[2] = tested on: secretion of IL10 by OCI-LY3 ABC-DLBCL cells; assay: Human IL10 Mesoscale assay (OCI-LY3); type: cell-based; conditions: 24 h incubation, IL10 in supernatant
Protocol: as §1, §2, §3

[3] = biological target: T1, full-length MALT1 protein (Strep-MALT1(1-824)-His) (Homo sapiens, UniProt Q9UDY8); assay: MALT1 Biochemical Protease Assay; conditions: 10 nM FL MALT1, 200 μM Ac-LRSR-AMC, 50 min pre-incubation, 4 h at RT; read-out: MALT1_Biochemical activity (Ac-LRSR-amc) IC50
T1 construct: full-length MALT1 protein (Strep-MALT1(1-824)-His) purified from baculovirus-infected insect cells; Strep (N); His (C); made in house; host or cells: baculovirus-infected insect cells
T1 sequence (Q9UDY8 1-824): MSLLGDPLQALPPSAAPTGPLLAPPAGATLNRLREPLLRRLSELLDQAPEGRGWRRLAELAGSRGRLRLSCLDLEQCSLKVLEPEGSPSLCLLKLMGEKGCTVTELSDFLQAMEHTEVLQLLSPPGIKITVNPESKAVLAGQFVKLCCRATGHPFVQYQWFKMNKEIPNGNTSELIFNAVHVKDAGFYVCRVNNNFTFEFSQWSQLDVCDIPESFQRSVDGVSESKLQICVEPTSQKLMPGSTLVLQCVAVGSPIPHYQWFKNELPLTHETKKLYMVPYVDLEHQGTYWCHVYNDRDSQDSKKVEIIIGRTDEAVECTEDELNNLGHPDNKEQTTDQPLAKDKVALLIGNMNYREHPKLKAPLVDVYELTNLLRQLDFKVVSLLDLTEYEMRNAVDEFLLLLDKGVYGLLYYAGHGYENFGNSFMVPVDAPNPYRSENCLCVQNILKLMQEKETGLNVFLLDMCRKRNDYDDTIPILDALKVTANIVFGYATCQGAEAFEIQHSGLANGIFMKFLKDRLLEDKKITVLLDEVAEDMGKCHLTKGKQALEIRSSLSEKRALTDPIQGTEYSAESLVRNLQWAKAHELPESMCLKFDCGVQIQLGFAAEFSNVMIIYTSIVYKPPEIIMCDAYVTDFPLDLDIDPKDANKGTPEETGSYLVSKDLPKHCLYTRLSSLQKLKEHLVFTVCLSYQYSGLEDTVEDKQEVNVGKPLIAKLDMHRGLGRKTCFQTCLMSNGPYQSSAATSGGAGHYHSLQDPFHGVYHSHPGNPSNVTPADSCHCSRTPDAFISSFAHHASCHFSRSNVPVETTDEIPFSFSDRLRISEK
Protocol: MALT1 protease activity was assessed in an in vitro assay using a tetrapeptide as substrate and full-length MALT1 protein (Strep-MALT1(1-824)-His) purified from baculovirus-infected insect cells. The tetrapeptide LRSR is coupled to AMC (7-amino-4-methylcoumarin) and provides a quenched, fluorescent substrate for the MALT1 protease (SM Biochemicals). Cleavage of AMC from the Arginine residue results in an increase in coumarin fluorescence measured at 460 nm (excitation 355 nm). The final assay buffer consisted of 10 nM FL MALT1 protein, 200 μM Ac-LRSR-AMC, 50 mM Tris pH 7.5, 0.6 M Citrate, 1 mM DTT, 1 mM EDTA, 0.05% BSA and 1.5% DMSO. Test compounds were spotted at 50 nL in 100% DMSO per well of a black 384-Proxiplate (Perkin Elmer). Test compound concentrations ranged from 30 μM to 0.5 nM using 11 dilution steps (1:3). Background signal was measured from control wells containing assay buffer without enzyme which functions as low control (LC). High control (HC) values were generated using the reaction with enzyme but no compound treatment. Compounds were pre-incubated with MALT1 enzyme for 50 minutes at RT. Substrate was added subsequently and fluorescence was measured in Labsystems fluoroskan at excitation 355 nm and emission 460 nm to determine time 0. The reaction was subsequently incubated for 4 h at RT and fluorescence was measured. For IC50 calculations, timepoint 0 was subtracted from the 4 h timepoint to correct for any potential autofluorescence of the compounds. The enzyme reaction was linear during the 4 h incubation period. Characterization of the substrate Ac-LRSR-AMC determined the Michaelis constant KM at 200 μM.
IC50 values were calculated using the following formula (Z prime should be >0.5): […]
A best-fit curve was fitted by a minimum sum of squares method to the plot of % Controlmin vs. compound concentration. From this an IC50 value (inhibitory concentration causing 50% inhibition) can be obtained. An estimate of the slope of the plot in terms of the Hill coefficient was also obtained.
Used in “Lexis Dose Response Curve Fitting” Version 1.0.

| SMILES | IC50 [1] [nM] | IC50 [2] [nM] | IC50 [3] [nM] | IC50 ([1]; Homo sapiens) [nM] | IC50 ([2]; Homo sapiens) [nM] |
| --- | --- | --- | --- | --- | --- |
| CCOC(=O)c1cncc(NC(=O)Nc2cnc(-n3nccn3)c(Cl)c2)c1[C@H](C)OC [Co. 37] | 2750 | 1660 | 1480 |  |  |
| CO[C@H](C)c1c(NC(=O)Nc2ccnc(C(F)(F)F)c2)cnc(C)c1C#N (single isomer, unassigned) [Co. 145] |  |  | 290 | 260 | 170 |
| CO[C@H](c1c(NC(=O)Nc2cnc(-n3nccn3)c(C(F)(F)F)c2)cnc(C)c1Cl)C1CC1 (single isomer, unassigned) [Co. 142] |  |  | 790 | 1200 | 780 |
| CO[C@@H](C)c1c(NC(=O)Nc2cc(Cl)c(-n3nccn3)nc2C)cnc(C)c1C#N [Co. 89] | 250 | 160 | 110 |  |  |
| CO[C@H](C)c1c(NC(=O)Nc2cnc(OC(F)F)c(Cl)c2)cnc(N)c1Cl (single isomer, unassigned) [Co. 136] |  |  | 60 | 60 | 30 |
| COC(C)c1c(NC(=O)Nc2cnc(-n3nccn3)c(C(F)(F)F)c2)cnc(C(F)F)c1C#N (single isomer, unassigned) [Co. 127] | 60 | 40 | 30 |  |  |
| CO[C@@H](C)c1c(NC(=O)Nc2cnc(-n3ncc([C@@H](C)O)n3)c(Cl)c2)cnc(C)c1C#N [Co. 115] | 230 | 100 | 60 |  |  |
| CO[C@@H](C)c1c(NC(=O)Nc2cnc(C3CC3)c(Cl)c2)cnc(C)c1Br [Co. 56] | > 15000 | 9330 | 2510 |  |  |
| CO[C@H](C)c1c(NC(=O)Nc2cnc(-n3nccn3)c(C(F)(F)F)c2)cnc(C(F)F)c1Cl (single isomer, unassigned) [Co. 134] |  |  | 40 | 80 | 80 |
| COc1cncc(NC(=O)Nc2cc(C(F)(F)F)c(-n3nccn3)nc2OC)c1[C@H](C)OC (single isomer, unassigned) [Co. 137] |  |  | 40 | 80 | 80 |

More lines, now with the values ahead:

| IC50 [1] [nM] | IC50 [2] [nM] | IC50 [3] [nM] | IC50 ([1]; Homo sapiens) [nM] | IC50 ([2]; Homo sapiens) [nM] | SMILES |
| --- | --- | --- | --- | --- | --- |
| 3020 | 1510 | 690 |  |  | CO[C@@H](C)c1c(NC(=O)Nc2cnc(-n3nccn3)c(C#N)c2)cnc(C)c1Br [Co. 92] |
| 100 | 80 | 50 |  |  | COC(C)c1c(NC(=O)Nc2cnc(-n3nccn3)c(Cl)c2)cnc(C)c1Br (stereo not drawn) [Co. 40] |
| 100 | 70 | 10 |  |  | COC(C)c1c(NC(=O)Nc2cnc(-n3nccn3)c(C(F)(F)F)c2)cnc(C)c1Br (single isomer, unassigned) [Co. 59] |
| 120 | 60 | 40 |  |  | CO[C@@H](C)c1c(NC(=O)Nc2cnc(-n3nccn3)c(Cl)c2)cnc(C)c1Cl [Co. 105] |
|  |  | 290 | 160 | 120 | COC(C)c1c(Cl)cncc1NC(=O)Nc1cnc(-n2nccn2)c(Cl)c1 (stereo not drawn) [Co. 22] |
| 750 | 450 | 220 |  |  | CO[C@H](C)c1c(NC(=O)Nc2cnc(-n3nccn3)c(Cl)c2)cnc(C)c1C#N [Co. 62] |
|  |  | 2690 | 1100 | 710 | CNc1ncc(NC(=O)Nc2cnc(-n3nccn3)c(Cl)c2)c([C@@H](C)OC)c1Br (single isomer, unassigned) [Co. 154] |
|  |  | 25000 | 11800 | 8710 | CNc1ncc(NC(=O)Nc2cnc(-n3nccn3)c(Cl)c2)c([C@H](C)OC)c1Br (single isomer, unassigned) [Co. 153] |
| 90 | 50 | 20 |  |  | CO[C@H](C)c1c(NC(=O)Nc2cnc(-n3nccn3)c(C#N)c2)cnc(C)c1Br [Co. 91] |
| 90 | 50 | 20 |  |  | CO[C@H](C)c1c(NC(=O)Nc2cnc(-n3nccn3)c(Cl)c2)cnc(N)c1Br [Co. 119] |
| 2800 | 1600 | 2100 |  |  | CO[C@H](C)c1c(C#N)cncc1NC(=O)Nc1cnc(-n2nccn2)c(Cl)c1 [Co. 27] |
